How the values were obtained:
[1] = Experiment 1: weight gain of rats on restricted diet (20 g crushed chow/day) with supplement mixed in chow; assay type: in vivo, Sprague-Dawley male rats; settings: for average weights and rates of weight gain and growth: days 4 to 11, 20 g chow/day supplemented with 1.0 g GlcNBu or 0.75 g Glc (equimolar) per day per animal; for average weights and rates of weight gain and growth / average rates of weight gain and growth and body weights: compared to control; for average rates of weight gain and growth and body weights: days 12 to 18, 20 g chow/day supplemented with 1.5 g GlcNBu or 1.148 g Glc (equimolar) per day per animal; for stimulation of weight gain and growth (overall, Experiment 1): oral supplementation of restricted diet, 18 days
Description: Twelve Sprague-Dawley male rats of body weights between 85 and 90 g each were placed in metabolic cages with access to food, each in an individual separate feeding compartment, so the animals could consume all their food without loss or spillage. Each morning 20 g of crushed commercial chow, which was less than the average determined amount of crushed chow these animals consume. ad lib, was placed in each individual feeding compartment. This procedure ensured that each animal would completely consume all of the crushed chow placed in each feeding compartment over the 24 hours starting with the said placement of the food. Supplementation of the crushed chow with the compounds to be tested was accomplished by mixing the compound with the chow. All test compounds were fully acceptable by the animals and the feeding compartments were emptied by the animals of the crushed chow and any test compound mixed therein, within 24 hr from the beginning of each feeding period. The animals were allowed free access to drinking water throughout the experimental period, which they consumed ad lib. The animals, obtained from a single commercial shipment, were randomly assigned to three experimental groups with four animals in each group. The experimental groups of animals are designated in FIG. 1 (A & B) as control; N-butyryl-D-glucosamine, shown as formula (II) and abbreviated as GlcNBu; and D-glucose abbreviated as Glc.
Starting at day 1 and continuing to day 12, inclusive, supplementations of the 20 g of crushed chow per day per animal were as following: Control group—no supplementation; GlcNBu group—supplementation with 1.0 g of GlcNBu per day per animal; Glc—supplementation with 0.75 g of Glc per day per animal, which corresponds to an equimolar amount of this GlcNBu supplementation.
On day 12 and continuing through day 18, the crushed chow (20 g given per day per animal) was further supplemented as follows: Control group—no supplementation; GlcNBu group—supplementation with 1.5 g of GlcNBu per day per animal; Glc —supplementation with 1.148 g of Glc per day per animal, which corresponds to an equimolar amount of this GlcNBu supplementation. It will be observed from FIG. 1 that there was no difference in the average rates of weight gain and growth or weights of the animals in the Glc and the control experimental groups of animals during the period of 12 to 18 days, inclusive.

[2] = Experiment 2: weight gain of rats restricted to 10 g (later 15 g) chow/day, supplement dissolved in water then solid; assay type: in vivo, Sprague Dawley male rats
Description: The animals were maintained in metabolic cages for the duration of the study (FIG. 2). Parameters of behavior and physical appearance were observed daily for any indications of toxicological complications. Twelve Sprague Dawley male rats were restricted to 10 g of Purina Rat Chow per day for eight days. Treatment groups were provided with water containing 20 mg/mL GlcN or GlcNBu. Daily volumes of urine produced and water consumed were recorded. The mean water consumption (ml/day) for the three groups was: 22.80, 24.45 and 21.45 for the control, the GlcN-supplemented and the GlcNBu-supplemented groups, respectively. These values were not statistically significant. On day nine of the study, untreated water was provided and the mass of rat chow given daily was increased to 15 g, supplemented with an additional 1.0 g of solid treatment compound. On day 18, the animals were sacrificed by CO2 asphyxiation and their organs were inspected for damage.

[3] = Experiment 3: weight gain of rats restricted to 10 g chow/day and gavaged with supplement; assay type: in vivo, Sprague Dawley male rats; settings: 300 mg by gavage three times daily, by the eighth day of treatment
Description: The weights, and behavioral and physical parameters of 20 Sprague Dawley male rats, 5 per treatment group, were monitored over a ten-day period. The control group was given Purina Rat Chow ad libitum. The treatment groups were restricted to 10 g of rat chow per day and were supplemented with one of 300 mg GlcNBu, 300 mg GlcN or water, administered by gavage three times daily (FIG. 3). The animals were then sacrificed by CO2 asphyxiation and their organs checked for signs of damage.

[4] = Experiment 4: weight gain of rats fed ad libitum and gavaged with various amounts of supplement; assay type: in vivo, Sprague Dawley male rats; settings: for effect on weight gain: 2000 mg/kg by gavage
Description: (§1) For the data illustrated in FIG. 4, thirty Sprague Dawley male rats were adapted for one week so that each of their weights at the onset of treatment was approximately 185 grams. Each treatment group consisted of six animals, each administered one of the following treatments: water, 20 mg/kg GlcNBu, 200 mg/kg GlcNBu, 2000 mg/kg GlcNBu of 2000 mg/kg GlcN. All animals were fed Purina Rat Chow and water ad libitum. […] For nine days, the compounds were administered using the gavage technique; half doses being administered at 08:00 and at 17:00. Final urine samples were collected, histological examinations were performed to identify any overt signs of damage and then samples from each were harvested. Urinanalysis was performed using reagent strips (Multistix 8 SG from Bayer Inc. Healthcare Division, Etobicoke ON). […] No symptoms of neurological damage such as seizures or problems with vision were observed. All animals were well groomed and clean, and their snouts were normal.

[5] = Experiment 4: toxicity observations (behaviour, histological examination, urinanalysis); assay type: in vivo; settings: gavage nine days; GlcN 2000 mg/kg, GlcNBu 20, 200, 2000 mg/kg; data not shown
Description: as §1

[6] = system: epiphyseal growth plate; assay: Experiment 5: 35S[SO4] autoradiography of epiphyseal growth plates; assay type: in vivo, rats; settings: for mean density value of autoradiograms in the region of the epiphyseal growth plate (area under scan curve; black = 0, white = 255): 20 hours after 20 μCi 35S[SO4] i.p. on day 18 of Experiment 1, 12 autoradiograms per group, control 125.6; for incorporation of radioisotope into sulfated glycosaminoglycans of proteoglycans of the epiphyseal growth plates, compared to control: 20 hours after 35S[SO4] injection
Description: At the end of Experiment 1, described above, the rats were injected intra-peritonealy with 20 μCi of ^35S[SO4] in 1 ml of saline on day 18 and sacrificed 20 hours after the injection. The femurs were removed and the distal ends of the bones were processed histologically for autoradiography. Histological sections of the bones were used to make autoradiograms on X-ray film and were also processed for routine histology, including Toluidine blue staining for assessment of the proteoglycans in the growth plate. No histological abnormalities were detected in the histology sections obtained from any of the experimental groups of animals. The density of the autoradiograms in the region of the epiphyseal growth plate was evaluated and quantified utilizing a scanning microscope and the appropriate software. The software calculates the density of the autoradiogram by scoring a black region (maximally incorporated radioactivity) as 0 and a white region (no incorporated radioactivity) as 255. The areas under the curves of the scan of the autoradiogram (see FIG. 5) are then computed to give the stated values. The mean values of all of the autoradiograms (12 autoradiograms for each group of animals) were: Control, 125.6; Glc-supplemented, 127.1; GlcNBu—supplemented, 143.2. FIG. 5 illustrates scans of typical autoradiograms for the control, Glc-supplemented and GlcNBu-supplemented groups. Each scan is illustrated by a curve whose bases (at the top right and left of the figure) represent radioisotope incorporation at the periphery of the epiphyseal growth plate, while the trough of the curve (in the central part of the figure) represents radioisotope incorporation in the central part of the epiphyseal growth plate. It can be seen that for each of the experimental groups less radioactivity has been incorporated in the central part of the epiphyseal growth plates (the trough of the curve), compared to the periphery of the epiphyseal growth plate (the bases of the curve). The curves with the deepest, middle and least troughs represent autoradiograms from the epiphyses of animals fed with GlcNBu (dots-dashes), Glc (dots) and controls (solid line), respectively, as described in Experiment 1.

[7] = Acute toxicology studies in rats (feeding); assay type: in vivo; settings: for rate of weight gain and growth compared to control animals: fed in significant amounts (glucosamine) or equimolar amounts (glucose)
Description: Acute toxicology studies were carried out in order to evaluate the toxicity in rats of the aforesaid compounds.

[8] = Setnikar I et al. Arzneimittelforschung 1986; cited from earlier work

CCCC(=O)N[C@H]1C(O)O[C@H](CO)[C@@H](O)[C@@H]1O (stereo partly drawn) [GlcNBu, N-butyryl-D-glucosamine]
average weights and rates of weight gain and growth [1]: significantly higher than those of the other groups | average rates of weight gain and growth and body weights [1]: further increase in the rate and average body weights | stimulation of weight gain and growth (overall, Experiment 1) [1]: stimulated the weight gain and growth | weight gained over the water controls ([2]; 20 mg/mL in water for 8 days, then 1.0 g solid with 15 g chow, maintained after five days of treatment): consistent statistical differences in weight gained over the water controls | growth compared to the GlcN group ([2]; starting at about day 10): grew somewhat more rapidly | increase in weight compared to the same amount of GlcN [3]: significantly greater increase in weight | increase in weights compared to water controls ([4]; 20 mg/kg by gavage, by day 3): statistically significant from those of the water controls | average weight gain compared to the GlcN group (2000 mg/kg) ([4]; 20 mg/kg by gavage, margin became insignificant by day seven): significantly higher | increase in weights compared to water controls ([4]; 200 mg/kg by gavage, by day 5): statistically significant from those of the water controls | average weight gain compared to the GlcN group (2000 mg/kg) ([4]; 200 mg/kg by gavage, significantly heavier by day 4): significantly higher | effect on weight gain ([4]; nine days): lesser stimulations, which were, nevertheless, higher than the control | dose of maximal stimulatory effect on weight gain and growth ([4]; gavage, nine days, doses 20, 200, 2000 mg/kg): 200 mg/kg | histological examinations for signs of toxicity [5]: failed to reveal any signs of toxicity | mean density value of autoradiograms in the region of the epiphyseal growth plate (area under scan curve; black = 0, white = 255) [6]: 143.2 | incorporation of radioisotope into sulfated glycosaminoglycans of proteoglycans of the epiphyseal growth plates, compared to control [6]: less incorporation of the radioisotope | upper limit of feeding in terms of observed toxicity ([7]; oral feeding, rats): no upper limit

O=C[C@H](O)[C@@H](O)[C@H](O)[C@H](O)CO [Glc, D-glucose, reference compound]
average weights and rates of weight gain and growth [1]: essentially identical | average rates of weight gain and growth and body weights [1]: no difference | stimulation of weight gain and growth (overall, Experiment 1) [1]: failed to stimulate growth or weight gain | mean density value of autoradiograms in the region of the epiphyseal growth plate (area under scan curve; black = 0, white = 255) [6]: 127.1 | incorporation of radioisotope into sulfated glycosaminoglycans of proteoglycans of the epiphyseal growth plates, compared to control [6]: (relatively small) stimulation of epiphyseal plate metabolism | rate of weight gain and growth compared to control animals [7]: no significant change

N[C@H]1C(O)O[C@H](CO)[C@@H](O)[C@@H]1O (stereo partly shown) [GlcN, glucosamine]
effect on weight gain ([4]; nine days): depression of weight gain | rate of weight gain and growth compared to control animals [7]: decrease in the rate of weight gain and growth | concentrations of free glucosamine in the circulation after ingestion [8]: only very low or not detectable concentrations
